Assay results published in PubChem BioAssay AID2060487 (Molecular Pharmacology Branch, DTP, NCI, 2025).

Tested on: 997537-175-T-J1-PDC complex spheroid viability
Test: Anticancer human tumor 997537-175-T-J1-PDC patient-derived colon adenocarcinoma cell line growth inhibition [GQUAD]
Conditions: for IC50: curve of first compound; for viability, T/C: stronger effect = lower value
Description: DNA G-quadruplex Stabilizer Agents in Combinations in Complex Spheroids
A high-throughput screen of multi-cell type tumor spheroids was designed to identify active combinations of DNA G-quadruplex stabilizer agents and targeted small molecules. Complex spheroids include a stromal component modeled by human endothelial cells (HUVEC) and fibroblasts modeled by human mesenchymal stem cells (MSCs). The concentration ranges selected for each drug and investigational agent were based upon clinically achievable concentrations if the clinical Cmax of the agent was known.
Compounds. The drugs and investigational agents: pidnarulex (CX-5461; NSC782164), APTO-253 (NSC789042), BRACO-19 (NSC847499), peposertib (NSC802822), ceralasertib (NSC780249), elimusertib (NSC800525), camonsertib (NSC841442), AZD-1390 (NSC803789), olaparib (NSC753686), talazoparib (NSC767125), ART-558 (NSC835418), sotorasib (NSC818433), MRTX-1133 (NSC836407), SN-38 (NSC673596), topotecan (NSC609699), etoposide (NSC141540), doxorubicin (NSC123127), gemcitabine (NSC613327), 5-fluorouracil (NSC19893), paclitaxel (NSC125973), vemurafenib (NSC761431), panobinostat (NSC761190), R-306465 (JNJ-16241199; NSC773264), adavosertib (NSC754352), TP-3654 (NSC805149), carboplatin (NSC241240), KSQ-4279 (NSC840948), and staurosporine (NSC755774) were obtained from the National Cancer Institute (NCI) Developmental Therapeutics Program Chemical Repository (34). The FDA-approved anticancer drug set is available from the NCI Developmental Therapeutics Program. […] The stock solutions were prepared in dimethyl sulfoxide (DMSO, Sigma-Aldrich, St. Louis, MO, cat. D2650) at 800-fold the tested concentration and stored at -70 degrees C prior to their use. All drugs and investigational agents were tested over a range starting from a high concentration at or near the clinical Cmax and decreasing in half-log increments. If the clinical Cmax for an agent had not been determined, the highest concentration tested was 10 microM.
2.3 Cell Culture. All cells were maintained in an incubator at 37 degrees C and 5% CO2 with 95% humidity. The PDC lines were cultured according to standard operating procedures established by the NCI PDMR. All PDCs were thawed and cultured in Matrigel-coated flasks prepared with a working solution of 1X Ham's F-12 nutrient mix, without supplementation (Invitrogen, cat. 11765054), 100 U/mL penicillin-streptomycin (Invitrogen, cat. 15140122), and 2.5% Matrigel (Corning Inc., cat. 354248) for the first three passages. The 857933-349-R-J2-PDC line was cultured in 6C/Colon 1B media, which includes advanced DMEM/F-12 (Thermo Fisher Scientific, cat. 12634028), 10 mM HEPES (Thermo Fisher Scientific, cat. 15630080), 1X GlutaMAX supplement (Thermo Fisher Scientific, cat. 35050061), 0.1 mg/mL primocin (InvivoGen, cat. ant-pm-2), 10% defined fetal bovine serum, heat inactivated (HyClone Laboratories Inc., cat. SH30070.03HI), 50% L-WRN conditioned media (ATCC, cat. CRL-3276), 1.25 mM N-Acetyl-L-cysteine (Sigma-Aldrich, cat. A9165), 10 mM nicotinamide (Sigma-Aldrich, cat. N0636), 1X B-27 supplement (Thermo Fisher Scientific, cat. 17504044), 1X N-2 supplement (Thermo Fisher Scientific, cat. 17502048), 10 microM Y-27632 dihydrochloride (Tocris Bioscience, cat. 1254), and 50 ng/mL human EGF recombinant protein (Thermo Fisher Scientific, cat. PHG0311). The 485176-168-R4-J1-PDC line was cultured in Panc media, which includes all 6C/Colon 1B media components plus 100 ng/mL human FGF-10 (Thermo Fisher Scientific, cat. 100-26), 500 nM SB-431542 (Selleckchem, cat. S1067), and gastrin (Tocris, cat. 3006).
[…]

[1] = second compound 0.0316 µM, first compound 0.0316 µM
[2] = second compound 0.0316 µM, first compound 0.1 µM
[3] = second compound 0.0316 µM, first compound 0.316 µM
[4] = second compound 0.0316 µM, first compound 1 µM
[5] = second compound 0.0316 µM, first compound 3.16 µM
[6] = second compound 0.0316 µM, first compound 10 µM
[7] = second compound 0.1 µM, first compound 0.0316 µM
[8] = second compound 0.1 µM, first compound 0.1 µM
[9] = second compound 0.1 µM, first compound 0.316 µM
[10] = second compound 0.1 µM, first compound 1 µM
[11] = second compound 0.1 µM, first compound 3.16 µM
[12] = second compound 0.1 µM, first compound 10 µM
[13] = second compound 0.316 µM, first compound 0.0316 µM
[14] = second compound 0.316 µM, first compound 0.1 µM
[15] = second compound 0.316 µM, first compound 0.316 µM
[16] = second compound 0.316 µM, first compound 1 µM
[17] = second compound 0.316 µM, first compound 3.16 µM
[18] = second compound 0.316 µM, first compound 10 µM
[19] = second compound 1 µM, first compound 0.0316 µM
[20] = second compound 1 µM, first compound 0.1 µM
[21] = second compound 1 µM, first compound 0.316 µM
[22] = second compound 1 µM, first compound 1 µM
[23] = second compound 1 µM, first compound 3.16 µM
[24] = second compound 1 µM, first compound 10 µM
[25] = second compound 3.16 µM, first compound 0.0316 µM
[26] = second compound 3.16 µM, first compound 0.1 µM
[27] = second compound 3.16 µM, first compound 0.316 µM
[28] = second compound 3.16 µM, first compound 1 µM
[29] = second compound 3.16 µM, first compound 3.16 µM
[30] = second compound 3.16 µM, first compound 10 µM
[31] = second compound 10 µM, first compound 0.0316 µM
[32] = second compound 10 µM, first compound 0.1 µM
[33] = second compound 10 µM, first compound 0.316 µM
[34] = second compound 10 µM, first compound 1 µM
[35] = second compound 10 µM, first compound 3.16 µM
[36] = second compound 10 µM, first compound 10 µM
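Further: spheroids exposed to the agents for 7 days.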
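Wherever viability, T/C is given: 100% = DMSO vehicle control viability.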

CC(C)(O)C1CCC(Nc2ccc3ncc(-c4cccc(C(F)(F)F)c4)n3n2)CC1 (centres undefined) + CN(C)c1ccc(Nc2c3ccc(NC(=O)CCN4CCCC4)cc3nc3cc(NC(=O)CCN4CCCC4)ccc23)cc1
IC50 (second compound 0.0316 µM): 2030 nM
IC50 (second compound 0.1 µM): 1820 nM
IC50 (second compound 0.316 µM): 1850 nM
IC50 (second compound 1 µM): 2230 nM
IC50 (second compound 3.16 µM): 1450 nM
IC50 (second compound 10 µM): 2020 nM
viability, T/C [1]: 99.5%
viability, T/C [2]: 108%
viability, T/C [3]: 88%
viability, T/C [4]: 65.8%
viability, T/C [5]: 41.1%
viability, T/C [6]: 26.1%
viability, T/C [7]: 83.8%
viability, T/C [8]: 89.8%
viability, T/C [9]: 78.2%
viability, T/C [10]: 58.9%
viability, T/C [11]: 38.2%
viability, T/C [12]: 45.8%
viability, T/C [13]: 85.2%
viability, T/C [14]: 78.5%
viability, T/C [15]: 78.2%
viability, T/C [16]: 75.3%
viability, T/C [17]: 27.9%
viability, T/C [18]: 20.4%
viability, T/C [19]: 61.4%
viability, T/C [20]: 91.5%
viability, T/C [21]: 79.2%
viability, T/C [22]: 81%
viability, T/C [23]: 30.4%
viability, T/C [24]: 44.9%
viability, T/C [25]: 64.5%
viability, T/C [26]: 85.5%
viability, T/C [27]: 79.4%
viability, T/C [28]: 54.5%
viability, T/C [29]: 44%
viability, T/C [30]: 36.7%
viability, T/C [31]: 87.8%
viability, T/C [32]: 96.4%
viability, T/C [33]: 95.9%
viability, T/C [34]: 70.5%
viability, T/C [35]: 37.2%
viability, T/C [36]: 22.6%

COc1cccc2c1C(=O)c1c(O)c3c(c(O)c1C2=O)CC(O)(C(=O)CO)CC3OC1CC(N)C(O)C(C)O1 (centres undefined) + Cc1[nH]c2ccc(F)cc2c1-c1nc2c3cccnc3c3ncccc3c2[nH]1
IC50 (second compound 0.0316 µM): > 10000 nM
IC50 (second compound 0.1 µM): 9790 nM
IC50 (second compound 0.316 µM): 8040 nM
IC50 (second compound 1 µM): 8480 nM
IC50 (second compound 3.16 µM): 6460 nM
IC50 (second compound 10 µM): 5600 nM
viability, T/C [1]: 97.6%
viability, T/C [2]: 82.8%
viability, T/C [3]: 101%
viability, T/C [4]: 97.7%
viability, T/C [5]: 95.5%
viability, T/C [6]: 51.1%
viability, T/C [7]: 80.7%
viability, T/C [8]: 78%
viability, T/C [9]: 95.4%
viability, T/C [10]: 91.7%
viability, T/C [11]: 96.9%
viability, T/C [12]: 49.2%
viability, T/C [13]: 101%
viability, T/C [14]: 83.3%
viability, T/C [15]: 80.7%
viability, T/C [16]: 96.9%
viability, T/C [17]: 79.8%
viability, T/C [18]: 43.1%
viability, T/C [19]: 76.2%
viability, T/C [20]: 91.3%
viability, T/C [21]: 92.7%
viability, T/C [22]: 85.4%
viability, T/C [23]: 80.3%
viability, T/C [24]: 44.9%
viability, T/C [25]: 74%
viability, T/C [26]: 64.4%
viability, T/C [27]: 84.1%
viability, T/C [28]: 83.6%
viability, T/C [29]: 95.1%
viability, T/C [30]: 31.4%
viability, T/C [31]: 67.6%
viability, T/C [32]: 86.5%
viability, T/C [33]: 94.1%
viability, T/C [34]: 88.7%
viability, T/C [35]: 66.7%
viability, T/C [36]: 33.2%
